The source made the active and inactive calls. The calls are words filed in the database; no cut-off is given here.
How the values were obtained:
A549 [1] = experiment: Inhibition of colony formation in human A549 cells overexpressing c-MET preincubated for 48 hrs followed by media replacement for every 2 days for 14 days by crystal violet staining based microscopic analysis; type: functional, cell-based; details: dose 0.25-2 µM
NCI-H1975 [2] = experiment: Inhibition of colony formation in human NCI-H1975 cells preincubated for 48 hrs followed by media replacement for every 2 days for 14 days by crystal violet staining based microscopic analysis; type: functional, cell-based; details: dose 0.25-2 µM
NCI-H1975 [3] = experiment: Antiproliferative activity against human NCI-H1975 cells overexpressing c-Met and EGFR assessed as reduction in cell viability incubated for 72 hrs by MTT assay; type: functional, cell-based; details: NCI-H1975, 72 h
A549 [4] = experiment: Induction of apoptosis in human A549 cells overexpressing c-MET assessed as increase in green fluorescence intensity incubated for 24 hrs by JC-1 staining based fluorescence inverted microscopic analysis; type: functional, cell-based; details: dose 1-2.5 µM
A549 [5] = experiment: Induction in apoptosis in human A549 cells overexpressing c-MET assessed as viable cells at 2.5 uM incubated for 24 hrs by Annexin V-FITC/Propidium Iodide staining based flow cytometry analysis (reference value: 81.92 %; type: functional; details: read-out: Activity
A549 [6] = experiment: Induction in apoptosis in human A549 cells overexpressing c-MET assessed as late apoptotic cells at 2.5 uM incubated for 24 hrs by Annexin V-FITC/Propidium Iodide staining based flow cytometry analysis (reference value: 7.59 %); type: functional
NCI-H1975 [7] = experiment: Induction in apoptosis in human NCI-H1975 cells assessed as viable cells at 1 uM incubated for 24 hrs by Annexin V-FITC/Propidium Iodide staining based flow cytometry analysis (reference value: 91.58 %); type: functional; details: read-out: Activity
NCI-H1975 [8] = experiment: Induction in apoptosis in human NCI-H1975 cells assessed as necrotic cells at 1 uM incubated for 24 hrs by Annexin V-FITC/Propidium Iodide staining based flow cytometry analysis (reference value: 1.42 %); type: functional
L02 [9] = experiment: Induction in apoptosis in human L02 cells assessed as late apoptotic cells at 1 uM incubated for 24 hrs by Annexin V-FITC/Propidium Iodide staining based flow cytometry analysis (reference value: 0.36 %); type: toxicity, cell-based; details: l02, 24 h
[10] = Induction in apoptosis in human L02 cells assessed as viable cells at 2.5 uM incubated for 24 hrs by Annexin V-FITC/Propidium Iodide staining based flow cytometry analysis (reference value: 92.75 %); type: toxicity, cell-based; details: read-out: Activity
L02 [11] = experiment: Induction in apoptosis in human L02 cells assessed as late apoptotic cells at 2.5 uM incubated for 24 hrs by Annexin V-FITC/Propidium Iodide staining based flow cytometry analysis (reference value: 0.36 %); type: toxicity, cell-based; details: l02, 24 h
L02 [12] = experiment: Induction in apoptosis in human L02 cells assessed as necrotic cells at 2.5 uM incubated for 24 hrs by Annexin V-FITC/Propidium Iodide staining based flow cytometry analysis (reference value: 6.63 %); type: toxicity, cell-based; details: l02, 24 h
A549 [13] = experiment: Induction of cell cycle arrest in human A549 cells overexpressing c-MET assessed as accumulation of cells at G1/G0 phase at 1 uM incubated for 24 hrs by RNase A/propidium iodide staining based flow cytometric analysis (reference value: 49.24 %); type: functional
A549 [14] = experiment: Induction of cell cycle arrest in human A549 cells overexpressing c-MET assessed as accumulation of cells at G1/G0 phase at 2.5 uM incubated for 24 hrs by RNase A/propidium iodide staining based flow cytometric analysis (reference value: 49.24 %); type: functional
A549 [15] = experiment: Induction of cell cycle arrest in human A549 cells overexpressing c-MET assessed as accumulation of cells at S phase at 2.5 uM incubated for 24 hrs by RNase A/propidium iodide staining based flow cytometric analysis (reference value: 37.87 %); type: functional
NCI-H1975 [16] = experiment: Antimigratory activity against EGF-induced cell migration in serum starved human NCI-H1975 cells assessed as increase in width of artificial gap incubated for 24 hrs by wound healing assay; type: functional, cell-based; details: dose 1-2.5 µM
A549 [17] = experiment: Downregulation of phosphorylated EGFR protein expression level human A549 cells overexpressing c-MET incubated for 24 hrs by Western blotting analysis; type: functional, cell-based; details: dose 1-10 µM
[18] = biological target: Epidermal growth factor receptor (Homo sapiens, UniProt P00533); experiment: Inhibition of wild type EGFR (unknown origin) at 10 uM relative to control
[19] = biological target: T1, Hepatocyte growth factor receptor (Homo sapiens, UniProt P08581); experiment: Inhibition of c-MET (unknown origin) at 10 uM relative to control
T1 sequence (P08581 whole entry): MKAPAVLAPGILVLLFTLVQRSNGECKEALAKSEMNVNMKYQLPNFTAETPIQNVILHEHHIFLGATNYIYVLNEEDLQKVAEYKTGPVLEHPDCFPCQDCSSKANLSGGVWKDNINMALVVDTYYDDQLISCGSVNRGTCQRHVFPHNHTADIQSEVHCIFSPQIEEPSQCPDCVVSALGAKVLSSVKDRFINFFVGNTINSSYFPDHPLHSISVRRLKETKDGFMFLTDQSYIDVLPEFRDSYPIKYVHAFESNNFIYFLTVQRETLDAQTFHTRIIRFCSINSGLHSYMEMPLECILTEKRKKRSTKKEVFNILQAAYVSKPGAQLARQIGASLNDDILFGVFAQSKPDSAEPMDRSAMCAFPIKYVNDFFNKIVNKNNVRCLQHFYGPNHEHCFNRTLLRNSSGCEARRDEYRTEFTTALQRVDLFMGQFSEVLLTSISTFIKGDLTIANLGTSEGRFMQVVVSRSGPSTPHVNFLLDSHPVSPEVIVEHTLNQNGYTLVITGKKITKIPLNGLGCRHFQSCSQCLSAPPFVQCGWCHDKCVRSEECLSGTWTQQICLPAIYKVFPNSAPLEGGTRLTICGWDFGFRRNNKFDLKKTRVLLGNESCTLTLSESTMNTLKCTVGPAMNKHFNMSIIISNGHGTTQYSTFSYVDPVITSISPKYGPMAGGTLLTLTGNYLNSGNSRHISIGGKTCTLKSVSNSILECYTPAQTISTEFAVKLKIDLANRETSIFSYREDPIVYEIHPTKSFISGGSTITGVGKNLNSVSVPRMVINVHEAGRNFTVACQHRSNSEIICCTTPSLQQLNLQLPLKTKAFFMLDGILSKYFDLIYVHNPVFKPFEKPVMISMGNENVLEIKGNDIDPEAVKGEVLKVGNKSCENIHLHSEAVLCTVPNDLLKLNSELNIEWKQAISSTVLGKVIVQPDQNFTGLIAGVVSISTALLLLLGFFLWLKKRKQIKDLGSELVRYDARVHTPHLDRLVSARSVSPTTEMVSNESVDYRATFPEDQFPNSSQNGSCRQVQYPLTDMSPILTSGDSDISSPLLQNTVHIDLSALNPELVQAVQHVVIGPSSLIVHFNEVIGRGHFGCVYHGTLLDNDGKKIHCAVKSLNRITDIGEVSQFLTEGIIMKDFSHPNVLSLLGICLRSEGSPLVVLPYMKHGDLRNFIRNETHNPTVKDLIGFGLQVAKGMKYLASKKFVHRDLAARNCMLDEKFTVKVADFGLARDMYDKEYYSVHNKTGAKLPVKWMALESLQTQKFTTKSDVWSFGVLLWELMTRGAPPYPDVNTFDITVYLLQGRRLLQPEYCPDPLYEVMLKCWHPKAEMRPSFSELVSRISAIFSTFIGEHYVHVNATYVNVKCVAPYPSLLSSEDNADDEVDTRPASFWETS

[20] = biological target: Proto-oncogene tyrosine-protein kinase ROS (Homo sapiens) (UniProt P08922); experiment: Inhibition of ROS (unknown origin) at 10 uM
[21] = biological target: Vascular endothelial growth factor receptor 3 (Homo sapiens) (UniProt P35916); experiment: Inhibition of FLT4 (unknown origin) at 10 uM
[22] = biological target: Fibroblast growth factor receptor 4 (Homo sapiens) (UniProt P22455); experiment: Inhibition of FGFR4 (unknown origin) at 10 uM
Fibroblast growth factor receptor 4 (Homo sapiens), sequence (P22455 22-802 limits assumed): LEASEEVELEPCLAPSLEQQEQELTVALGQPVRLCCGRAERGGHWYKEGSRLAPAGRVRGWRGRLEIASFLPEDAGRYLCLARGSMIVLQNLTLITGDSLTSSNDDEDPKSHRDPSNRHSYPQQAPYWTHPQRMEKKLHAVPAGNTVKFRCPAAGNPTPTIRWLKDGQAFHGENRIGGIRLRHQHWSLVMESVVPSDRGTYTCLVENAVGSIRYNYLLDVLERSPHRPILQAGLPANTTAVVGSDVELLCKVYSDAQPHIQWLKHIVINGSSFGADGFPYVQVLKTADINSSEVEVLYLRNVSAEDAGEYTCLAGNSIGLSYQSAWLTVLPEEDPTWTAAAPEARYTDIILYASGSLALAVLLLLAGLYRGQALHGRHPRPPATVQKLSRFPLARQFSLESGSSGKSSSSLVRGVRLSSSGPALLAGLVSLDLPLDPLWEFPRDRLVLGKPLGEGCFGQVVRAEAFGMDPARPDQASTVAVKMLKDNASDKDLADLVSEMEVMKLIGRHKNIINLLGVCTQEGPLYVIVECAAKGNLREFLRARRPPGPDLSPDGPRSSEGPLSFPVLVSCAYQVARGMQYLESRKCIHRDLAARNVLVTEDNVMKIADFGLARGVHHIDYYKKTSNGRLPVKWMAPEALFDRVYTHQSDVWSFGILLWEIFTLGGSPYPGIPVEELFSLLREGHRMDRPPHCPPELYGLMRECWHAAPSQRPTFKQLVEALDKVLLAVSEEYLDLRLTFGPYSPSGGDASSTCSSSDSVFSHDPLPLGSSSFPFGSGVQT

[23] = biological target: Insulin receptor (Homo sapiens) (UniProt P06213); experiment: Inhibition of INSR (unknown origin) at 10 uM
Insulin receptor (Homo sapiens), sequence (P06213 28-758 limits assumed): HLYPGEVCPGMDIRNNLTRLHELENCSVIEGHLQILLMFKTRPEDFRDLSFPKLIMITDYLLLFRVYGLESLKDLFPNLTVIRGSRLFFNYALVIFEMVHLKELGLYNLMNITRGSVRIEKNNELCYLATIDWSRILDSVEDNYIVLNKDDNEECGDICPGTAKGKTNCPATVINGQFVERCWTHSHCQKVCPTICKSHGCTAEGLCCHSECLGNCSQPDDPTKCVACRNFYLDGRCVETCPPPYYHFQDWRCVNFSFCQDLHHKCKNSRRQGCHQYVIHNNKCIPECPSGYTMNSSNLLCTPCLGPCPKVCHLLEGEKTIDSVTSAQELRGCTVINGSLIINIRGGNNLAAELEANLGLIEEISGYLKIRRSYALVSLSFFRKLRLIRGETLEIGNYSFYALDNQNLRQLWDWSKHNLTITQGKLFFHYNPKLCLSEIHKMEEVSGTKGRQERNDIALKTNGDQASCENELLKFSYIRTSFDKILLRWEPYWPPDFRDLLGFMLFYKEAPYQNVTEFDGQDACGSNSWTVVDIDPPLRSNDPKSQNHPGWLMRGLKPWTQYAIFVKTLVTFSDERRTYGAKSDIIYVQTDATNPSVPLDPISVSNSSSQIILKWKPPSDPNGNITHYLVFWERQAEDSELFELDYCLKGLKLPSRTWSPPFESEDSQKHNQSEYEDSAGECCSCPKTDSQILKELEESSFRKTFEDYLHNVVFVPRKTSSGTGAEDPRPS
Insulin receptor (Homo sapiens), sequence (P06213 763-1382 limits assumed): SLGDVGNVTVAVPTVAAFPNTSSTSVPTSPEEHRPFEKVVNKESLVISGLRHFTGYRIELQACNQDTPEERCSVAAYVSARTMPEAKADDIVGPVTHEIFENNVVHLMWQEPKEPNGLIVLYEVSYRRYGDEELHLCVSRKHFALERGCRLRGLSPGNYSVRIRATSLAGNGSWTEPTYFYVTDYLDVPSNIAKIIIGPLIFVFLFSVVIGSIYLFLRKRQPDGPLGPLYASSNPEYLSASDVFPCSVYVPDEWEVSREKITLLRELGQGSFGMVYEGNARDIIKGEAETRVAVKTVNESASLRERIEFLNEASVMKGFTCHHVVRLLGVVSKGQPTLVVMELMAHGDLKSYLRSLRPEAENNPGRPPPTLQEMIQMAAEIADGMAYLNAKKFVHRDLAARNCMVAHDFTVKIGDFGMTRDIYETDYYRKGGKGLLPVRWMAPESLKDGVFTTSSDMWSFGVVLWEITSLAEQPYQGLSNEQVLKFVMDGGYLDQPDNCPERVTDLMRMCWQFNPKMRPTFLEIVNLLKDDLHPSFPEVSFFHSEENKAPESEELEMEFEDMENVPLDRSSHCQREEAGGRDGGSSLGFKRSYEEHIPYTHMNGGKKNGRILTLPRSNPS

Homo sapiens = species on record: Homo sapiens; experiment: Inhibition of EGFR T790/C797S mutant (unknown origin) at 10 uM
[24] = biological target: Fibroblast growth factor receptor 2 (Homo sapiens) (UniProt P21802); experiment: Inhibition of FGFR2 (unknown origin) at 10 uM
Fibroblast growth factor receptor 2 (Homo sapiens), sequence (P21802 22-821 limits assumed): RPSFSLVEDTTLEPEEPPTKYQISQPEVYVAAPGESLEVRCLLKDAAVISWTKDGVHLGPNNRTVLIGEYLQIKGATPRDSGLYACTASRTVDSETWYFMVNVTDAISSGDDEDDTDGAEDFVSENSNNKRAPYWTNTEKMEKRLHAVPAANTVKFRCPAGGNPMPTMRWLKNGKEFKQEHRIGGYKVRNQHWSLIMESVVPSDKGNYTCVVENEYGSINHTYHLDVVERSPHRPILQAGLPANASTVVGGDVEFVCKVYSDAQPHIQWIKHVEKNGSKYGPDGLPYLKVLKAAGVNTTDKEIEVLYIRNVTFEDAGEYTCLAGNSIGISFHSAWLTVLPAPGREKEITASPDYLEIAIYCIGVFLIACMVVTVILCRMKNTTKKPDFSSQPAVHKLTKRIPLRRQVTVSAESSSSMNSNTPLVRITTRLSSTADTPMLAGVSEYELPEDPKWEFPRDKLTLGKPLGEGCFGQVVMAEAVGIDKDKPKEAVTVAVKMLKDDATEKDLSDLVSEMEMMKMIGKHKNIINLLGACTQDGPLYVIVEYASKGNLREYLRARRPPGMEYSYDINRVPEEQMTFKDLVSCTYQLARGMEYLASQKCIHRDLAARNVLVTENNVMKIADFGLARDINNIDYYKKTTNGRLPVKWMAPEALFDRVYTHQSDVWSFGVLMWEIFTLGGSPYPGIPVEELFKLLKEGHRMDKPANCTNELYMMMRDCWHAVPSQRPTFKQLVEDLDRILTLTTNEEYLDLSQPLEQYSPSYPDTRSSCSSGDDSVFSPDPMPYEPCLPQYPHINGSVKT

[25] = biological target: Mitogen-activated protein kinase 1 (Homo sapiens) (UniProt P28482); experiment: Inhibition of MAPK1 (unknown origin) at 10 uM
Mitogen-activated protein kinase 1 (Homo sapiens), sequence (P28482 whole entry): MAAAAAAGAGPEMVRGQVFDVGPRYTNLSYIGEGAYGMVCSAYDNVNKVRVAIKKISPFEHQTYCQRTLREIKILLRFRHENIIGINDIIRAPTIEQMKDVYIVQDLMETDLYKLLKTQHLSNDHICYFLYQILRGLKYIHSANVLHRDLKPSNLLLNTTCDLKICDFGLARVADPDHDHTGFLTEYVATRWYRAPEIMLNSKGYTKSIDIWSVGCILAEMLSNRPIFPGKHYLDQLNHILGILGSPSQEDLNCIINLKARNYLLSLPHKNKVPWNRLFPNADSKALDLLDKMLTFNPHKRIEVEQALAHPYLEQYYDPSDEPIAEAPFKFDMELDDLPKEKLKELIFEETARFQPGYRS

[26] = Cardiotoxicity in KM mouse assessed as effect on creatine kinase level at 100 mg/kg, IG qd administered for 7 days by automatic biochemical analyzer; type: toxicity, organism-based; details: in vivo, po, 168 h, time 7 day
[27] = Nephrotoxicity in KM mouse assessed as effect on creatinine level at 100 mg/kg, IG qd administered for 7 days by automatic biochemical analyzer; type: toxicity, organism-based; details: in vivo, po, 168 h, time 7 day
[28] = Acute toxicity in KM mouse assessed as effect on glucose level at 100 mg/kg, IG qd administered for 7 days by automatic biochemical analyzer; type: organism-based; details: in vivo, po, 168 h, time 7 day
[29] = Acute toxicity in KM mouse assessed as cell damage or necrosis in spleen at 100 mg/kg, IG qa administered for 7 days and measured on day 8 by hematoxylin and eosin staining based assay; type: organism-based; details: in vivo, po, 192 h, time 8 day
A549 [30] = experiment: Antitumor activity against human A549 cells overexpressing c-MET xenografted in BALB/c nude mouse assessed as reduction in tumor volume at 60 mg/kg, IG qod measured for 24 days; type: functional, organism-based; details: time 24.0 day
A549 [31] = experiment: Antitumor activity against human A549 cells overexpressing c-MET xenografted in BALB/c nude mouse assessed as tumor growth inhibition at 60 mg/kg, IG qod measured for 24 days relative to control; type: functional; details: A549, po, 576 h, time 24 day, read-out: TGI
[32] = biological target: T1, Hepatocyte growth factor receptor; experiment: Potency index, ratio of foretinib IC50 to test compound IC50 for inhibition of N-terminal GST tagged human recombinant c-Met (956 to end residues) expressed in baculovirus infected Sf9 cells using Poly (4:1 Glu, Tyr) as substrate incubated for 60 mins in presence of ATP by ADP-Glo luminescent assay
[33] = biological target: T1, Hepatocyte growth factor receptor; experiment: biochemical
Description: Inhibition of N-terminal GST tagged human recombinant c-Met (956 to end residues) expressed in baculovirus infected Sf9 cells using Poly (4:1 Glu, Tyr) as substrate incubated for 60 mins in presence of ATP by ADP-Glo luminescent assay

Compound: C=CC(=O)Nc1cc2c(Oc3ccc(NC(=O)n4c(=O)c(-c5ccccc5)c(C)n4C)cc3F)cccc2cc1OC
- inhibition (A549 [1]): Dose-Dependent Effect
- inhibition (NCI-H1975 [2]): Dose-Dependent Effect
- IC50 (NCI-H1975 [3]): 1130 nM
- Activity (A549 [4]): Dose-Dependent Effect
- viability at 2.5 µM (A549 [5]): 60.1%
- Activity (A549 [6]): 22.82%
- viability at 1 µM (NCI-H1975 [7]): 88.2%
- Activity (NCI-H1975 [8]): 1.74%
- Activity (L02 [9]): 0.28%
- viability at 24 h, 2.5 µM [10]: 95%
- Activity (L02 [11]): 0.34%
- Activity (L02 [12]): 4.53%
- Activity (A549 [13]): 53.03%
- Activity (A549 [14]): 57.29%
- Activity (A549 [15]): 31.41%
- Activity (NCI-H1975 [16]): Dose-Dependent Effect
- Activity (A549 [17]): Dose-Dependent Effect
- inhibition [18]: > 90%
- inhibition [19]: > 90%
- inhibition [20]: Active
- inhibition [21]: Active
- inhibition [22]: inactive
- inhibition [23]: inactive
- inhibition (Homo sapiens): inactive
- inhibition [24]: inactive
- inhibition [25]: inactive
- Activity [26]: Non-Toxic
- Activity [27]: Non-Toxic
- Activity [28]: Non-Toxic
- Activity [29]: Non-Toxic
- Activity (A549 [30]): Active
- inhibition in vivo at 60 mg/kg (A549 [31]): 55.3%
- Ratio IC50 [32]: 28
- IC50 [33]: 0.26 nM
